In patent US10766903B2 (ALMAC DISCOVERY LIMITED, priority 2016, dated 2020):
Structures can show the parent of a compound that is named as a salt.

Each compound was assayed against USP7 (Homo sapiens (Human), UniProt Q93009) (assay: USP7 fluorescence polarisation (FP) biochemical assay, ubiquitin-Lys-TAMRA substrate). Conditions: not given.
Chain of USP7 (Q93009 whole entry): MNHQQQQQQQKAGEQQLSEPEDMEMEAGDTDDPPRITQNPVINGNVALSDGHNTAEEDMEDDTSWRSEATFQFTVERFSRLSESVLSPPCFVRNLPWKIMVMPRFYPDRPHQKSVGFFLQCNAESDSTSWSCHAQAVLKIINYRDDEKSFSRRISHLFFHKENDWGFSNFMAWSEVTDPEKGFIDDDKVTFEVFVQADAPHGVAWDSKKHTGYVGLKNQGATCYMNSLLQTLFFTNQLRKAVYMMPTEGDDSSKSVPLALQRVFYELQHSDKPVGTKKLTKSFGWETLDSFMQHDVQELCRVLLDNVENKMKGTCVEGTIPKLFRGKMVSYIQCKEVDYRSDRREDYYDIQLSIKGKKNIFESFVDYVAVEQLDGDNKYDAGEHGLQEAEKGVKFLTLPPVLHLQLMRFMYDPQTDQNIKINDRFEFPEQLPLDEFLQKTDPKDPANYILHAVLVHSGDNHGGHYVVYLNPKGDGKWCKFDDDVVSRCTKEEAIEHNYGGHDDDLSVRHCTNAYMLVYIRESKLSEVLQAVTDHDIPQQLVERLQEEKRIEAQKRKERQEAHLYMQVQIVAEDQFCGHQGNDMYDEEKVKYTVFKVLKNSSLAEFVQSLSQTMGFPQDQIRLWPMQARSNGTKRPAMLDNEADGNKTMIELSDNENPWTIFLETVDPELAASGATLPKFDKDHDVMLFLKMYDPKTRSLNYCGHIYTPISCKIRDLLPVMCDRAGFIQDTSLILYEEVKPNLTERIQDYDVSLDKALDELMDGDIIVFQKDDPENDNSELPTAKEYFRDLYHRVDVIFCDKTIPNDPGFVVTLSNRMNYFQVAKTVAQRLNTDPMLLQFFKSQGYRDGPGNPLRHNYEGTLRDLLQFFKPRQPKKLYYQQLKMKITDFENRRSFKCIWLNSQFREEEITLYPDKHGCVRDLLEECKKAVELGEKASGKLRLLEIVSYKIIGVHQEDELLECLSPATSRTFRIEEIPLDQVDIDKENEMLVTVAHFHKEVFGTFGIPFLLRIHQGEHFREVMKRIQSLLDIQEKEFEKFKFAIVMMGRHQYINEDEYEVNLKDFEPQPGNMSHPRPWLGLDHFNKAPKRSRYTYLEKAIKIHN
Protocol: Measurement of USP7 Inhibitory Activity
USP7 activity was monitored in a fluorescence polarisation (FP) homogeneous assay using the isopeptide ubiquitin-Lys-TAMRA substrate (U-558, Boston Biochem). Full-length USP7 was purchased from Boston Biochem (His6-USP7FL, E-519). Unless otherwise stated, all other reagents were purchased from Sigma-Aldrich. Enzymatic reactions were conducted in black flat-bottom polystyrene 384-well plates (Nunc) and 15 μL total volume. USP7 (2.5 nM, 5 μL) was incubated in assay buffer (50 mM HEPES (pH 7.2), 150 mM NaCl, 0.5 mM EDTA, 5 mM DTT, 0.05% BSA (w/v), 0.05% CHAPS) in the presence or absence of inhibitor (5 μl). Inhibitors were stored as 10 mM DMSO stocks in an inert environment (low humidity, dark, low oxygen, room temperature) using a Storage Pod System and serial dilutions were prepared in buffer just prior to the assay (from 200 to 0.1 μM, 8 dp curve). […] FP was measured every 15 min over a period of 1.5 h (within the linear range of the assay) using a Synergy 4 plate reader (BioTek) exciting at 530 nm and measuring the amount of parallel and perpendicular light at 575 nm. The FP signal was subsequently normalised to the control without compound present.
Work on `C[C@H](CC(=O)N1CCC(O)(Cn2cnc(Nc3ccc4c(c3)C3CCC4N3)cc2=O)CC1)c1ccccc1` (stereo partly drawn) [Example 42, 3-((4-Hydroxy-1-((R)-3-phenylbutanoyl)piperidin-4-yl)methyl)-6-((1,2,3,4-tetrahydro-1,4-epiminonaphthalen-6-yl)amino)pyrimidin-4(3H)-one hydrochloride] yielded an IC50 of 250 to 999 nM.

Same assay, conditions: Table 4, biochemical assay; average of at least duplicate experiments; read-out: USP7 IC50
Work on `C[C@H](CC(=O)N1CCC(O)(Cn2cnc(NCC3CCOCC3)cc2=O)CC1)c1ccccc1` [Example 163, (R)-3-((4-hydroxy-1-(3-phenylbutanoyl)piperidin-4-yl)methyl)-6-(((tetrahydro-2H-pyran-4-yl)methyl)amino)pyrimidin-4(3H)-one] yielded an IC50 of 1000 to 200000 nM.
Compound `O=C(CCC1CCC1)N1CCC(O)(Cn2cnc3c(nnn3-c3ccccc3)c2=O)CC1` [Example 186, 6-((1-(3-Cyclobutylpropanoyl)-4-hydroxypiperidin-4-yl)methyl)-3-phenyl-3H-[1,2,3]triazolo[4,5-d]pyrimidin-7(6H)-one] has an IC50 of 1000 to 200000 nM.
With `Cc1c(NCCN2CCCC2)ncn(CC2(O)CCN(C(=O)C[C@@H](C)c3ccccc3)CC2)c1=O` [Example 111, (R)-3-((4-Hydroxy-1-(3-phenylbutanoyl)piperidin-4-yl)methyl)-5-methyl-6-((2-(pyrrolidin-1-yl)ethyl)amino)pyrimidin-4(3H)-one] the IC50 was 1000 to 200000 nM.
`C[C@H](CN1CCCC1)Nc1cc(=O)n(CC2(O)CCN(C(=O)C[C@@H](C)c3ccccc3)CC2)cn1` [Example 60, 3-((4-Hydroxy-1-((R)-3-phenylbutanoyl)piperidin-4-yl)methyl)-6-(((R)-1-(pyrrolidin-1-yl)propan-2-yl)amino)pyrimidin-4(3H)-one, Formic Acid] was tested, and the IC50 was < 250 nM.
With `COc1ccc(-n2c(Cl)cc3c(=O)n(CC4(O)CCN(C(=O)c5cnc(C6CC6)o5)CC4)cnc32)cc1OC` [Example 240, 6-Chloro-3-((1-(2-cyclopropyloxazole-5-carbonyl)-4-hydroxypiperidin-4-yl)methyl)-7-(3,4-dimethoxyphenyl)-3,7-dihydro-4H-pyrrolo[2,3-d]pyrimidin-4-one] the IC50 was < 250 nM.
Compound `O=C(C[C@H](c1ccccc1)C(F)(F)F)N1CCC(O)(Cn2cnc3c(ncn3-c3ccccc3)c2=O)CC1` [Example 128, (R)-1-((4-Hydroxy-1-(4,4,4-trifluoro-3-phenylbutanoyl)piperidin-4-yl)methyl)-9-phenyl-1H-purin-6(9H)-one] has an IC50 of 250 to 999 nM.
`Cn1nc2c(=O)n(CC3(O)CCN(C(=O)c4cnc(C5CC5)o4)CC3)cnc2c1-c1ccccc1` [Example 196, 6-((1-(2-Cyclopropyloxazole-5-carbonyl)-4-hydroxypiperidin-4-yl)methyl)-2-methyl-3-phenyl-2H-pyrazolo[4,3-d]pyrimidin-7(6H)-one] gave an IC50 of 1000 to 200000 nM.
`C[C@H](CC(=O)N1CCC(O)(Cn2cnc3c(-c4cccc(C(=O)O)c4)n(C)nc3c2=O)CC1)c1ccccc1` [Example 244, (R)-3-(6-((4-Hydroxy-1-(3-phenylbutanoyl)piperidin-4-yl)methyl)-2-methyl-7-oxo-6,7-dihydro-2H-pyrazolo[4,3-d]pyrimidin-3-yl)benzoic Acid] gave an IC50 of 1000 to 200000 nM.
In the case of `Cc1nc2c(=O)n(CC3(O)CCN(C(=O)c4cnc(C5CC5)o4)CC3)cnc2n1-c1ccccc1` [Example 195, 1-((1-(2-Cyclopropyloxazole-5-carbonyl)-4-hydroxypiperidin-4-yl)methyl)-8-methyl-9-phenyl-1H-purin-6(9H)-one], the IC50 is reported as 1000 to 200000 nM.
For `O=C(C(C1CCC1)C1CCC1)N1CCC(O)(Cn2cnc(NCCN3CCCC3)cc2=O)CC1` [Example 184, 3-((1-(2,2-Dicyclobutylacetyl)-4-hydroxypiperidin-4-yl)methyl)-6-((2-(pyrrolidin-1-yl)ethyl)amino)pyrimidin-4(3H)-one], the IC50 was 1000 to 200000 nM.
Work on `C[C@H](CC(=O)N1CCC(O)(Cc2cnc(-c3ccccc3)cn2)CC1)c1ccccc1` [Example 115, (R)-1-(4-Hydroxy-4-((5-phenylpyrazin-2-yl)methyl)piperidin-1-yl)-3-phenylbutan-1-one] yielded an IC50 of 1000 to 200000 nM.
In the case of `C[C@H](CC(=O)N1CCC(O)(Cn2cnc(NCCNc3ccccc3)cc2=O)CC1)c1ccccc1` [Example 146, (R)-3-((4-hydroxy-1-(3-phenylbutanoyl)piperidin-4-yl)methyl)-6-((2-(phenylamino)ethyl)amino)pyrimidin-4(3H)-one], the IC50 is reported as 1000 to 200000 nM.
`CN1CC=C(c2c3ncn(CC4(O)CCN(C(=O)C[C@H](c5ccccc5)C(F)(F)F)CC4)c(=O)c3nn2C)CC1` [Example 130, (R)-6-((4-Hydroxy-1-(4,4,4-trifluoro-3-phenylbutanoyl)piperidin-4-yl)methyl)-2-methyl-3-(1-methyl-1,2,3,6-tetrahydropyridin-4-yl)-2H-pyrazolo[4,3-d]pyrimidin-7(6H)-one] gave an IC50 of 1000 to 200000 nM.
`C[C@H](CC(=O)N1CCC(O)(Cn2cnc3c(Nc4ccccc4)n(C)nc3c2=O)CC1)c1ccccc1` [Example 43, (R)-6-((4-Hydroxy-1-(3-phenylbutanoyl)piperidin-4-yl)methyl)-2-methyl-3-(phenylamino)-2H-pyrazolo[4,3-d]pyrimidin-7(6H)-one] gave an IC50 of 1000 to 200000 nM.
`O=C(c1cnc(C2CC2)o1)N1CCC(O)(Cn2cnc3c(cc(Cl)n3-c3ccccc3)c2=O)CC1` [Example 215, 6-Chloro-3-((1-(2-cyclopropyloxazole-5-carbonyl)-4-hydroxypiperidin-4-yl)methyl)-7-phenyl-3H-pyrrolo[2,3-d]pyrimidin-4(7H)-one] was tested, and the IC50 was < 250 nM.
With `C[C@H](CC(=O)N1CCC(O)(Cn2cnc3c(ncn3-c3ccccc3)c2=O)CC1)c1ccccc1` [Example 17, (R)-1-((4-Hydroxy-1-(3-phenylbutanol)piperidin-4-yl)methyl)-9-phenyl-1H-purin-6(9H)-one] the IC50 was < 250 nM.
With `C[C@H](CC(=O)N1CCC(O)(Cn2cnc(N3CC[C@H](N)C3)cc2=O)CC1)c1ccccc1` [Example 12, 6-((S)-3-Aminopyrrolidin-1-yl)-3-((4-hydroxy-1-((R)-3-phenylbutanoyl)piperidin-4-yl)methyl)pyrimidin-4(3H)-one] the IC50 was < 250 nM.
With `C[C@H](CC(=O)N1CCC(O)(Cn2cnc(N3CCC4(CC3)COC4)cc2=O)CC1)c1ccccc1` [Example 175, (R)-3-((4-hydroxy-1-(3-phenylbutanoyl)piperidin-4-yl)methyl)-6-(2-oxa-7-azaspiro[3.5]nonan-7-yl)pyrimidin-4(3H)-one] the IC50 was 1000 to 200000 nM.
`CC1(C(=O)N2CCC(O)(Cn3cnc4c(cc(Cl)n4-c4cccc(-n5cc(F)cn5)c4)c3=O)CC2)CC1` [Example 227, 6-Chloro-7-(3-(4-fluoro-1H-pyrazol-1-yl)phenyl)-3-((4-hydroxy-1-(1-methylcyclopropanecarbonyl)piperidin-4-yl)methyl)-3H-pyrrolo[2,3-d]pyrimidin-4(7H)-one] was tested, and the IC50 was < 250 nM.
With `O=C(c1cnc(C2CC2)o1)N1CCC(O)(Cn2cnc3c(cc(Cl)n3-c3ccc(C4CC4)cc3)c2=O)CC1` [Example 221, 6-Chloro-3-((1-(2-cyclopropyloxazole-5-carbonyl)-4-hydroxypiperidin-4-yl)methyl)-7-(4-cyclopropylphenyl)-3H-pyrrolo[2,3-d]pyrimidin-4(7H)-one] the IC50 was < 250 nM.
Work on `CNc1nc2ncn(CC3(O)CCN(C(=O)CCc4ccccc4)CC3)c(=O)c2s1` [Example 93, 6-((4-Hydroxy-1-(3-phenylpropanoyl)piperidin-4-yl)methyl)-2-(methylamino)thiazolo[4,5-d]pyrimidin-7(6H)-one] yielded an IC50 of 1000 to 200000 nM.
Work on `C[C@H](CC(=O)N1CCC(O)(Cn2cnc(NCCN3CCCC3)c(Br)c2=O)CC1)c1ccccc1` [Example 45, (R)-5-Bromo-3-((4-hydroxy-1-(3-phenylbutanoyl)piperidin-4-yl)methyl)-6-((2-(pyrrolidin-1-yl)ethyl)amino)pyrimidin-4(3H)-one] yielded an IC50 of 1000 to 200000 nM.
`Cn1nc2c(=O)n(CC3(O)CCN(C(=O)C[C@H](c4ccccc4)C(F)(F)F)CC3)cnc2c1-c1ccc(C2(N)CCC2)cc1` [Example 88, (R)-3-(4-(1-Aminocyclobutyl)phenyl)-6-((4-hydroxy-1-(4,4,4-trifluoro-3-phenylbutanoyl)piperidin-4-yl)methyl)-2-methyl-2H-pyrazolo[4,3-d]pyrimidin-7(6H)-one] was tested, and the IC50 was < 250 nM.

Same assay, conditions: USP7 IC50, Table 4, biochemical assay; average of at least duplicate experiments
Compound `Cn1nc2c(=O)n(CC3(O)CCN(C(=O)C[C@H](c4ccccc4)C(F)(F)F)CC3)cnc2c1C1CCCCC1` [Example 136, (R)-3-Cyclohexyl-6-((4-hydroxy-1-(4,4,4-trifluoro-3-phenylbutanoyl)piperidin-4-yl)methyl)-2-methyl-2H-pyrazolo[4,3-d]pyrimidin-7(6H)-one] has an IC50 of 250 to 999 nM.
In the case of `C[C@H](CC(=O)N1CCC(O)(Cn2cnc(N3CC[C@H](N(C)C)C3)cc2=O)CC1)c1ccccc1` [Example 62, 6-((S)-3-(Dimethylamino)pyrrolidin-1-yl)-3-((4-hydroxy-1-((R)-3-phenylbutanoyl)piperidin-4-yl)methyl)pyrimidin-4(3H)-one], the IC50 is reported as 250 to 999 nM.
Work on `C[C@H](CC(=O)N1CCC(O)(Cn2cnc(NCCN3Cc4cccc(F)c4C3)cc2=O)CC1)c1ccccc1` [Example 86, (R)-6-((2-(4-Fluoroisoindolin-2-yl)ethyl)amino)-3-((4-hydroxy-1-(3-phenylbutanoyl)piperidin-4-yl)methyl)pyrimidin-4(3H)-one, Formic Acid] yielded an IC50 of 250 to 999 nM.
